US9115143B2, “Substituted indole derivatives as gamma secretase modulators” (Janssen Pharmaceuticals, Inc., priority 2011, dated 2015)
pIC50: −log10 of the molar value.

Columns and labels:
Aβ38 = test: In vivo efficacy B-2b: brain soluble Aβ38, MSD electrochemiluminescence multiplex; details: mouse brain soluble fraction, dose 30 mg/kg oral dosing, 4 h after dose; untreated control set at 100; read-out: Aβ38 (% vs Ctrl)_Mean
Description: (§1) To determine whether acute administration of an Aβ38 increasing agents would increase Aβ38 levels in vivo, non-transgenic rodents, e.g. mice or rats were used. Animals treated with the Aβ38 increasing agents were examined and compared to those untreated or treated with vehicle and brain levels of soluble Aβ42, Aβ40, Aβ38, and Aβ37 were quantitated by MSD electrochemiluminescence detection technology. Treatment periods varied from hours (h) to days and were adjusted based on the results of the Aβ38 increase once a time course of onset of effect could be established.
(§2) A typical protocol for measuring Aβ38 increase in vivo is shown but it is only one of many variations that could be used to optimize the levels of detectable Aβ. For example, Aβ38 increasing agents were formulated in 20% of Captisol® (a sulfobutyl ether of β-cyclodextrin) in water or 20% hydroxypropyl β cyclodextrin. The Aβ38 increasing agents were administered as a single oral dose or by any acceptable route of administration to overnight fasted animals. After 4 h, the animals were sacrificed and Aβ38 levels were analysed.
(§3) Blood was collected by decapitation and exsanguinations in EDTA-treated collection tubes. Blood was centrifuged at 1900 g for 10 minutes (min) at 4° C. and the plasma recovered and flash frozen for later analysis. The brain was removed from the cranium and hindbrain. The cerebellum was removed and the left and right hemisphere were separated. The left hemisphere was stored at −18° C. for quantitative analysis of test compound levels. The right hemisphere was rinsed with phosphate-buffered saline (PBS) buffer and immediately frozen on dry ice and stored at −80° C. until homogenization for biochemical assays.
(§4) Mouse brains from non-transgenic animals were resuspended in 8 volumes of 0.4% DEA (diethylamine)/50 mM NaCl containing protease inhibitors (Roche-11873580001 or 04693159001) per gram of tissue, e.g. for 0.158 g brain, add 1.264 ml of 0.4% DEA. All samples were homogenized in the FastPrep-24 system (MP Biomedicals) using lysing matrix D (MPBio #6913-100) at 6 m/s for 20 seconds. Homogenates were centrifuged at 20800×g for 5 min and supernatants collected. Supernatants were centrifuged at 221.300×g for 50 min. The resulting high speed supernatants were then transferred to fresh eppendorf tubes. Nine parts of supernatant were neutralized with 1 part 0.5 M Tris-HCl pH 6.8 and used to quantify Aβ.
(§5) To quantify the amount of Aβ42, Aβ40, Aβ38, and Aβ37 in the soluble fraction of the brain homogenates, simultaneous specific detection of Aβ42, Aβ40, Aβ38, and Aβ37 was performed using MSD's electro-chemiluminescence multiplex detection technology. In this assay purified monoclonal antibodies specific for Abeta37 (JRD/Aβ37/3), Abeta38 (J&JPRD/Aβ38/5), Abeta40 (JRF/cAβ40/28), and Abeta42 (JRF/cAβ42/26) were coated on MSD 4-plex plates. Briefly, the standards (a dilution of synthetic Aβ42, Aβ40, Aβ38, and Aβ37) were prepared in 1.5 ml Eppendorf tube in Ultraculture, with final concentrations ranging from 10000 to 0.3 pg/m. The samples and standards were co-incubated with Sulfo-tag labelled JRF/rAβ/2 antibody to the N-terminus of Aβ as detector antibody. 50 μl of conjugate/sample or conjugate/standards mixtures were then added to the antibody-coated plate. The plate was allowed to incubate overnight at 4° C. in order to allow formation of the antibody-amyloid complex. Following this incubation and subsequent wash steps the assay was finished by adding read buffer according to the manufacturer's instructions (Meso Scale Discovery, Gaitherburg, Md.).
(§6) The SULFO-TAG emits light upon electrochemical stimulation initiated at the electrode. MSD Sector instrument SI6000 was used for signal read-out.
In this model a Aβ38 increase compared to untreated animals would be advantageous, in particular a Aβ38 increase with at least 10%, more in particular a Aβ38 increase with at least 20%. […]

Aβ42 [1] = test: In vivo efficacy B-1b: brain soluble Aβ42, MSD electrochemiluminescence multiplex; details: mouse brain soluble fraction, dose 30 mg/kg oral dosing, 4 h after dose; untreated control set at 100; read-out: Aβ42 (% vs Ctrl)_Mean
Description: as §1, with “Aβ42 lowering agent” for “Aβ38 increasing agents”, “reduce Aβ42” for “increase Aβ38”, “Meso Scale Discovery's (MSD)” for “MSD”, “Aβ42 lowering” for “Aβ38 increase”
as §2, with “measuring Aβ42 lowering” for “measuring Aβ38 increase”, “example, Aβ42 lowering compounds” for “example, Aβ38 increasing agents”, “The Aβ42 lowering” for “The Aβ38 increasing”, “and Aβ42” for “and Aβ38”
as §3, §4, §5, §6
In this model a Aβ42 lowering compared to untreated animals would be advantageous, in particular a Aβ42 lowering with at least 10%, more in particular a Aβ42 lowering with at least 20%. […]

Aβtotal = test: Screening for γ-secretase-modulating activity: Aβtotal in supernatant of SKNBE2 cells carrying hAPP 695 wild type (Alphalisa); assay type: cell-based, human; details: overnight incubation, Alphalisa on supernatant
Summary of the method: (§7)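 Secreted Aβ42 (C-terminal/N-terminal antibody pair) and Aβtotal (N-terminal/mid-region pair) were quantified by AlphaLISA after overnight compound exposure of wild-type hAPP 695 SKNBE2 cells at 37 °C. Values expressed relative to compound-free maximum, with IC50 from nonlinear 4-parameter regression.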

Aβ40 = test: In vivo efficacy B-1b/B-2b: brain soluble Aβ40, MSD electrochemiluminescence multiplex; details: mouse brain soluble fraction, dose 30 mg/kg oral dosing, 4 h after dose; untreated control set at 100; read-out: Aβ40 (% vs Ctrl)_Mean
Description: as §1, with “Aβ42 lowering agent” for “Aβ38 increasing agents”, “reduce Aβ42” for “increase Aβ38”, “Meso Scale Discovery's (MSD)” for “MSD”, “Aβ42 lowering” for “Aβ38 increase”
as §2, with “measuring Aβ42 lowering” for “measuring Aβ38 increase”, “example, Aβ42 lowering compounds” for “example, Aβ38 increasing agents”, “The Aβ42 lowering” for “The Aβ38 increasing”, “and Aβ42” for “and Aβ38”
as §3, §4, §5, §6
The results are shown in Table 5 (dose 30 mg/kg oral dosing) (value for untreated animals as control (Ctrl) was set at 100): […]

Aβ42 [2] = test: Screening for γ-secretase-modulating activity: Aβ42 in supernatant of SKNBE2 cells carrying hAPP 695 wild type (Alphalisa); assay type: cell-based, human; details: SKNBE2 human neuroblastoma cells carrying hAPP 695 wild type; overnight incubation; Alphalisa on supernatant
Summary of the method: as §7

[3] = Homo sapiens, SKNBE2, SKNBE2 human neuroblastoma cells carrying hAPP 695 wild type
[4] = SKNBE2 human neuroblastoma cells carrying hAPP 695 wild type

| pIC50 (Aβtotal; [3]) | pIC50 (Aβ42 [2]) | pIC50 (Aβtotal; [4]) | melting point [°C] | Compound | response vs control in vivo at 30 mg/kg (Aβ38) [%] | response vs control in vivo at 30 mg/kg (Aβ42 [1]) [%] | response vs control in vivo at 30 mg/kg (Aβ40) [%] |
| --- | --- | --- | --- | --- | --- | --- | --- |
| < 5.00 | 7.68 |  |  | COc1c(C#N)ccc2[nH]c(-c3cn4c(n3)C(c3ccccc3C(F)(F)F)OCC4)cc12 (single isomer, unassigned) [Compound 44, 2-[5,6-dihydro-8-[2-(trifluoromethyl)phenyl]-8H-imidazo[2,1-c][1,4]oxazin-2-yl]-4-methoxy-1H-indole-5-carbonitrile] | 110 | 27 | 31 |
| < 5.00 | 7.35 |  |  | COc1c(C#N)ccc2[nH]c(-c3nc4n(n3)CCOC4c3ccccc3C(F)(F)F)cc12 (single isomer, unassigned) [Compound 56, 2-[5,6-dihydro-8-[2-(trifluoromethyl)phenyl]-8H-[1,2,4]triazolo[5,1-c][1,4]oxazin-2-yl]-4-methoxy-1H-indole-5-carbonitrile] | 139 | 54 | 91 |
| < 5.00 | 7.41 |  |  | COc1c(C#N)ccc2[nH]c(-c3cn4c(n3)C(c3c(F)cccc3Cl)OCC4)cc12 (single isomer, unassigned) [Compound 122, 2-[8-(2-chloro-6-fluorophenyl)-5,6-dihydro-8H-imidazo[2,1-c][1,4]oxazin-2-yl]-4-methoxy-1H-indole-5-carbonitrile] | 145 | 74 | 90 |
| 5.19 | 7.57 |  |  | COc1c(C#N)ccc2[nH]c(-c3cn4c(n3)C(c3cccc(F)c3C(F)(F)F)OCC4)cc12 (single isomer, unassigned) [Compound 131, 2-[8-[3-fluoro-2-(trifluoromethyl)phenyl]-5,6-dihydro-8H-imidazo[2,1-c][1,4]oxazin-2-yl]-4-methoxy-1H-indole-5-carbonitrile] | 144 | 62 | 72 |
| < 5.00 | 7.23 |  |  | COc1c(C#N)ccc2[nH]c(-c3nc4n(n3)CCOC4c3cccc(F)c3C(F)(F)F)cc12 (single isomer, unassigned) [Compound 133, 2-[8-[3-fluoro-2-(trifluoromethyl)phenyl]-5,6-dihydro-8H-[1,2,4]triazolo[5,1-c][1,4]oxazin-2-yl]-4-methoxy-1H-indole-5-carbonitrile] | 119 | 98 | 107 |
| < 5.00 | 7.13 |  |  | COc1c(C#N)ccc2[nH]c(-c3nc4n(n3)CCOC4c3cccc(C)c3F)cc12 (single isomer, unassigned) [Compound 148, 2-[8-(2-fluoro-3-methylphenyl)-5,6-dihydro-8H-[1,2,4]triazolo[5,1-c][1,4]oxazin-2-yl]-4-methoxy-1H-indole-5-carbonitrile] | 132 | 110 | 118 |
|  | 7.70 | < 5.00 |  | COc1c(C#N)ccc2[nH]c(-c3cn4c(n3)C(c3cccc(F)c3C)OCC4)cc12 (stereo not shown) [Compound 41, 2-[8-(3-fluoro-2-methylphenyl)-5,6-dihydro-8H-imidazo[2,1-c][1,4]oxazin-2-yl]-4-methoxy-1H-indole-5-carbonitrile] | 140 | 34 | 35 |
|  | 7.46 | < 5.00 |  | COc1c(C#N)ccc2[nH]c(-c3nc4n(n3)CCCOC4c3ccc(F)cc3C)cc12 (stereo not shown) [Compound 53, 2-[9-(4-fluoro-2-methylphenyl)-6,7-dihydro-5H,9H-[1,2,4]triazolo[5,1-c][1,4]oxazepin-2-yl]-4-methoxy-1H-indole-5-carbonitrile] | 78 | 74 | 79 |
|  | 7.07 | < 5.00 | 267.3 | COc1c(C#N)ccc2[nH]c(-c3nc4n(n3)CCOC4c3ccc(F)c(Cl)c3)cc12 (stereo not shown) [Compound 156, 2-[8-(3-chloro-4-fluorophenyl)-5,6-dihydro-8H-[1,2,4]triazolo[5,1-c][1,4]oxazin-2-yl]-4-methoxy-1H-indole-5-carbonitrile] |  |  |  |
|  | 5.12 | < 5.00 | 265.5 | COc1c(C#N)ccc2[nH]c(-c3nc4n(n3)CCOC4c3ccc(F)c(Cl)c3)cc12 (stereo not shown) [Compound 157, 2-[8-(3-chloro-4-fluorophenyl)-5,6-dihydro-8H-[1,2,4]triazolo[5,1-c][1,4]oxazin-2-yl]-4-methoxy-1H-indole-5-carbonitrile] |  |  |  |
|  | 6.17 | < 5.00 | 277.1 | COc1c(C#N)ccc2[nH]c(-c3cn4c(n3)C(c3cc(F)ccc3C)OCC4)cc12 (stereo not shown) [Compound 159, 2-[8-(5-fluoro-2-methylphenyl)-5,6-dihydro-8H-imidazo[2,1-c][1,4]oxazin-2-yl]-4-methoxy-1H-indole-5-carbonitrile] |  |  |  |
|  | 6.12 | < 5.00 | 270.8 | COc1c(C#N)ccc2[nH]c(-c3cn4c(n3)C(c3ccccc3C3CC3)OCC4)cc12 (stereo not shown) [Compound 169, 2-[8-(2-cyclopropylphenyl)-5,6-dihydro-8H-imidazo[2,1-c][1,4]oxazin-2-yl]-4-methoxy-1H-indole-5-carbonitrile] |  |  |  |
| < 5.00 | 7.96 |  | 269.8 | COc1c(C#N)ccc2[nH]c(-c3cn4c(n3)C(c3ccccc3C3CC3)OCC4)cc12 (stereo not shown) [Compound 170, 2-[8-(2-cyclopropylphenyl)-5,6-dihydro-8H-imidazo[2,1-c][1,4]oxazin-2-yl]-4-methoxy-1H-indole-5-carbonitrile] |  |  |  |
